Measurements published in patent US10246456B2, “IRAK4 inhibiting agents” (BIOGEN MA INC., priority 2014, dated 2019).

Tests used:
IRAK4 = IRAK4 (Homo sapiens (Human), UniProt Q9NWZ3); test: IRAK-4 AlphaScreen biochemical kinase assay; conditions: 1 nM IRAK4, 1 mM ATP, 3.5 h at RT
Method in brief: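 AlphaScreen read-out: streptavidin beads bind the biotinylated peptide and protein A beads bind the anti-phosphothreonine antibody, so energy transfer reports phosphorylation of the peptide. The kinase is human IRAK-4.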

IL-6 in A549 cells = test: Cell-based IL-6 ELISA assay in IL-1beta stimulated A549 cells; conditions: 2 ng/ml human IL-1beta overnight
Method in brief: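 A549 cells (2.5×10^4/well, DMEM/10% FBS) pretreated 30 min at 37 C with compound, 10-point serial dilution from 10 uM, then stimulated overnight with 2 ng/ml human IL-1beta. Secreted IL-6 in supernatant quantified by human IL-6 ELISA.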

Chain of IRAK4 (Q9NWZ3 whole entry, species assumed): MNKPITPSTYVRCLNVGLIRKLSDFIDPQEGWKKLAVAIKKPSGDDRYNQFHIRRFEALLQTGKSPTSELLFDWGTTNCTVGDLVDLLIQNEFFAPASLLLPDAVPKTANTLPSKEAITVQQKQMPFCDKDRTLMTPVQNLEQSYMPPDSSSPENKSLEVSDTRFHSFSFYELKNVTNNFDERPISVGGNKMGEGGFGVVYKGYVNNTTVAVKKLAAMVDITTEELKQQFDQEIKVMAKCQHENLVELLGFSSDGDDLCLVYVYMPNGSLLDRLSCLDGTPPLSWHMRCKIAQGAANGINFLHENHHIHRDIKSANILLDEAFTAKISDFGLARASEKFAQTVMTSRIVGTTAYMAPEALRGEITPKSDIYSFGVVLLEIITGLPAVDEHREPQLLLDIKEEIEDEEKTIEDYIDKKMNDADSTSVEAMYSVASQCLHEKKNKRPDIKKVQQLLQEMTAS

Row | Structure (SMILES) | IC50 (IRAK4) | EC50 (IL-6 in A549 cells)
1 | CCC[C@H](N)c1cccc(-c2cc(OCCC3CC3)c3cnn(-c4cccc(CO)n4)c3c2)n1 [Example 522, (S)-(6-(6-(6-(1-aminobutyl)pyridin-2-yl)-4-(2-cyclopropylethoxy)-1H-indazol-1-yl)pyridin-2-yl)methanol] | < 100 nM | ≤ 1000 nM
2 | CCC[C@H](N)c1cccc(-c2cc(N3CC(C)(C)C3)c3cnn(-c4cccc(CO)n4)c3c2)n1 [Example 340, (S)-(6-(6-(6-(1-aminobutyl)pyridin-2-yl)-4-(3,3-dimethylazetidin-1-yl)-1H-indazol-1-yl)pyridin-2-yl)methanol] | < 100 nM | ≤ 1000 nM
3 | CC(C)C[C@H](N)c1cccc(-c2ccc3cnn(-c4cccc(CO)n4)c3c2)n1 [Example 521, (S)-(6-(6-(6-(1-amino-3-methylbutyl)pyridin-2-yl)-1H-indazol-1-yl)pyridin-2-yl)methanol] | < 100 nM | ≤ 1000 nM
4 | CCC[C@H](N)c1cccc(-c2cc(N3CCC(C(=O)O)CC3)c3cnn(-c4cccc(CO)n4)c3c2)n1 [Example 350, (S)-1-(6-(6-(1-aminobutyl)pyridin-2-yl)-1-(6-(hydroxymethyl)pyridin-2-yl)-1H-indazol-4-yl)piperidine-4-carboxylic acid] | < 100 nM | 1000 to 10000 nM
5 | CCC[C@H](N)c1cccc(-c2cc(CF)c3cnn(-c4cccc(CO)n4)c3c2)n1 [Example 487, (S)-(6-(6-(6-(l-aminobutyl)pyridin-2-yl)-4-(fluoromethyl)-1H-indazol-1-yl)pyridin-2-yl)methanol] | < 100 nM | ≤ 1000 nM
6 | CC(N)CNC(=O)c1cc(-c2cccc([C@H](C)N)n2)cc2c1cnn2-c1cccc(CO)n1 (stereo partly drawn) [Example 548, 6-(6-((S)-1-aminoethyl)pyridin-2-yl)-N-(2-aminopropyl)-1-(6-(hydroxymethyl)pyridin-2-yl)-1H-indazole-4-carboxamide] | 100 to 1000 nM | 1000 to 10000 nM
7 | COCCCOc1cc(-c2cccc([C@H](C)N)n2)cc2c1cnn2-c1cccc(CO)n1 [Example 458, (S)-(6-(6-(6-(1-aminoethyl)pyridin-2-yl)-4-(3-methoxypropoxy)-1H-indazol-1-yl)pyridin-2-yl)methanol] | < 100 nM | ≤ 1000 nM
8 | CCC[C@H](N)c1cccc(-c2cc(C#N)c3cnn(-c4cccc(CO)n4)c3c2)n1 [Example 511, (S)-6-(6-(1-aminobutyl)pyridin-2-yl)-1-(6-(hydroxymethyl)pyridin-2-yl)-1H-indazole-4-carbonitrile] | < 100 nM | ≤ 1000 nM
9 | C[C@H](N)c1cccc(-c2cc(-c3ncc(C(F)(F)F)s3)c3cnn(-c4cccc(CO)n4)c3c2)n1 [Example 380, (S)-(6-(6-(6-(1-aminoethyl)pyridin-2-yl)-4-(5-(trifluoromethyl)thiazol-2-yl)-1H-indazol-1-yl)pyridin-2-yl)methanol] | < 100 nM | 1000 to 10000 nM
10 | CCC[C@H](N)c1cccc(-c2cc(NCC(C)(C)CCl)c3cnn(-c4cccc(CO)n4)c3c2)n1 [Example 344, (S)-(6-(6-(6-(1-aminobutyl)pyridin-2-yl)-4-((3-chloro-2,2-dimethylpropyl)amino)-1H-indazol-1-yl)pyridin-2-yl)methanol] | < 100 nM | ≤ 1000 nM
11 | CCC[C@H](N)c1cccc(-c2cc(C(F)F)c3cnn(-c4cccc(CO)n4)c3c2)n1 [Example 491, (S)-(6-(6-(6-(1-aminobutyl)pyridin-2-yl)-4-(difluoromethyl)-1H-indazol-1-yl)pyridin-2-yl)methanol] | < 100 nM | ≤ 1000 nM
12 | CCC[C@H](N)c1cccc(-c2cc(-c3ccn(C)n3)c3cnn(-c4cccc(CO)n4)c3c2)n1 [Example 361] | < 100 nM | ≤ 1000 nM
13 | CCC[C@H](N)c1cccc(-c2cc(OCC3CCCNC3)c3cnn(-c4cccc(CO)n4)c3c2)n1 (stereo partly drawn) [Example 506, (6-(6-(6-((S)-1-aminobutyl)pyridin-2-yl)-4-(piperidin-3-ylmethoxy)-1H-indazol-1-yl)pyridin-2-yl)methanol] | < 100 nM | ≤ 1000 nM
14 | CCC[C@H](N)c1cccc(-c2cc(N3CC(C(=O)O)C3)c3cnn(-c4cccc(CO)n4)c3c2)n1 [Example 348, (S)-1-(6-(6-(1-aminobutyl)pyridin-2-yl)-1-(6-(hydroxymethyl)pyridin-2-yl)-1H-indazol-4-yl)azetidine-3-carboxylic acid] | < 100 nM | ≤ 1000 nM
15 | CCC[C@H](N)c1cccc(-c2cc(N3CC(CO)(CCl)C3)c3cnn(-c4cccc(CO)n4)c3c2)n1 [Example 332, (S)-(1-(6-(6-(1-aminobutyl)pyridin-2-yl)-1-(6-(hydroxymethyl)pyridin-2-yl)-1H-indazol-4-yl)-3-(chloromethyl)azetidin-3-yl)methanol] | < 100 nM | ≤ 1000 nM
16 | CC[C@@H](F)[C@H](N)c1cccc(-c2cc(OCCOC)c3cnn(-c4cccc(CO)n4)c3c2)n1 [Example 453, (6-(6-(6-((1R,2R)-1-amino-2-fluorobutyl)pyridin-2-yl)-4-(2-methoxyethoxy)-1H-indazol-1-yl)pyridin-2-yl)methanol] | < 100 nM | ≤ 1000 nM

Row | Structure (SMILES) | IC50 (IRAK4) | EC50 (IL-6 in A549 cells)
17 | Cc1cccc(-n2ncc3c(-c4ncco4)cc(-c4cccc(C(C)N)n4)cc32)n1 (centres unmarked) [Example 542, 1-(6-(1-(6-methylpyridin-2-yl)-4-(oxazol-2-yl)-1H-indazol-6-yl)pyridin-2-yl)ethanamine] | < 100 nM | 1000 to 10000 nM
18 | C[C@H](N)c1cccc(-c2cc(-c3cnn(C)c3)c3cnn(-c4cccc(CO)n4)c3c2)n1 [Example 367, (S)-(6-(6-(6-(1-aminoethyl)pyridin-2-yl)-4-(1-methyl-1H-pyrazol-4-yl)-1H-indazol-1-yl)pyridin-2-yl)methanol] | < 100 nM | ≤ 1000 nM
19 | NC(c1cccc(-c2ccc3cnn(-c4cccc(CO)n4)c3c2)n1)C1COC1 (centres unmarked) [Example 446, (6-(6-(6-(amino(oxetan-3-yl)methyl)pyridin-2-yl)-1H-indazol-1-yl)pyridin-2-yl)methanol] | < 100 nM | ≤ 1000 nM
20 | CCOc1cc(-c2cccc([C@@H](N)[C@@H](CC)OC)n2)cc2c1cnn2-c1cccc(CO)n1 [Example 445, (6-(6-(6-((1R,2R)-1-amino-2-methoxybutyl)pyridin-2-yl)-4-ethoxy-1H-indazol-1-yl)pyridin-2-yl)methanol] | < 100 nM | ≤ 1000 nM
21 | CCC[C@H](N)c1cccc(-c2ccc3cnn(-c4cncc(C(F)(F)F)n4)c3c2)n1 [Example 546, (S)-1-(6-(1-(6-(trifluoromethyl)pyrazin-2-yl)-1H-indazol-6-yl)pyridin-2-yl)butan-1-amine] | < 100 nM | 1000 to 10000 nM
22 | CCOc1cc(-c2cccc([C@@H](N)C3CC3)n2)cc2c1cnn2-c1cncc(CO)n1 [Example 501, (S)-(6-(6-(6-(amino(cyclopropyl)methyl)pyridin-2-yl)-4-ethoxy-1H-indazol-1-yl)pyrazin-2-yl)methanol] | < 100 nM | ≤ 1000 nM
23 | CCCC(O)c1cccc(-c2ccc3cnn(-c4cccc(CO)n4)c3c2)n1 (centres unmarked) [Example 550, 1-(6-(1-(6-(hydroxymethyl)pyridin-2-yl)-1H-indazol-6-yl)pyridin-2-yl)butan-1-ol] | 1000 to 10000 nM | 1000 to 10000 nM
24 | CCC[C@H](N)c1cccc(-c2cc(N3CCCC(C(=O)O)C3)c3cnn(-c4cccc(CO)n4)c3c2)n1 (stereo partly drawn) [Example 349, 1-(6-(6-((S)-1-aminobutyl)pyridin-2-yl)-1-(6-(hydroxymethyl)pyridin-2-yl)-1H-indazol-4-yl)piperidine-3-carboxylic acid] | < 100 nM | ≤ 1000 nM
25 | COCC(N)c1cccc(-c2ccc3cnn(-c4cccc(CO)n4)c3c2)n1 (centres unmarked) [Example 543, (6-(6-(6-(1-amino-2-methoxyethyl)pyridin-2-yl)-1H-indazol-1-yl)pyridin-2-yl)methanol] | < 100 nM | 1000 to 10000 nM
26 | C[C@H](N)c1cccc(-c2cc(-c3nccs3)c3cnn(-c4cccc(CO)n4)c3c2)n1 [Example 379, (S)-(6-(6-(6-(1-aminoethyl)pyridin-2-yl)-4-(thiazol-2-yl)-1H-indazol-1-yl)pyridin-2-yl)methanol] | < 100 nM | 1000 to 10000 nM
27 | CCC[C@H](N)c1cccc(-c2cc(C3=CCN(C(C)=O)CC3)c3cnn(-c4cccc(CO)n4)c3c2)n1 [Example 488, (S)-1-(4-(6-(6-(1-aminobutyl)pyridin-2-yl)-1-(6-(hydroxymethyl)pyridin-2-yl)-1H-indazol-4-yl)-5,6-dihydropyridin-1(2H)-yl)ethanone] | < 100 nM | ≤ 1000 nM
28 | CCC[C@H](N)c1cccc(-c2cc(CO)c3cnn(-c4cccc(CO)n4)c3c2)n1 [Example 492, (S)-(6-(6-(1-aminobutyl)pyridin-2-yl)-1-(6-(hydroxymethyl)pyridin-2-yl)-1H-indazol-4-yl)methanol] | < 100 nM | ≤ 1000 nM
29 | C[C@H](N)c1cccc(-c2cc(-c3ccccn3)c3cnn(-c4cccc(CO)n4)c3c2)n1 [Example 373, (S)-(6-(6-(6-(1-aminoethyl)pyridin-2-yl)-4-(pyridin-2-yl)-1H-indazol-1-yl)pyridin-2-yl)methanol] | < 100 nM | ≤ 1000 nM
30 | Cc1nc(-c2cc(-c3cccc([C@H](C)N)n3)cc3c2cnn3-c2cccc(CO)n2)cs1 [Example 368, (S)-(6-(6-(6-(1-aminoethyl)pyridin-2-yl)-4-(2-methylthiazol-4-yl)-1H-indazol-1-yl)pyridin-2-yl)methanol] | < 100 nM | ≤ 1000 nM
31 | Cc1nc(-c2cc(-c3cccc([C@H](C)N)n3)cc3c2cnn3-c2cccc(CO)n2)sc1C [Example 377, (S)-(6-(6-(6-(1-aminoethyl)pyridin-2-yl)-4-(4,5-dimethylthiazol-2-yl)-1H-indazol-1-yl)pyridin-2-yl)methanol] | < 100 nM | ≤ 1000 nM
